Experimental data from patent US20100119612A1, “NANOPARTICLES COMPRISING NON-CRYSTALLINE DRUG” (Bend Research, Inc, priority 2007, published 2010).
≈ marks a conversion by molar mass, not a printed value.

What was measured:
[1] = Measurement of free drug by 19F NMR; format: physicochemical; settings: after 120 minutes; deuterated PBS with 2.0 wt % NaTC/POPC; 37° C.; 1000 μg/mL Drug 1 if all dissolved
Method: Alternatively, free drug for a nanoparticle suspension can be measured with nuclear magnetic resonance (NMR). In this method, the nanoparticles are equilibrated in an NMR tube with a buffered deuterium oxide solution. A specified amount of a reference standard is also added to the sample, such that the final concentration of the standard in the tube is known. An NMR spectrum is then acquired, and the integration of the drug peak(s) is compared to that of the reference standard to determine the actual dissolved drug concentration. Depending on the drug, either proton NMR (in which case a suitable reference standard is deuterated trimethylsilyl propionic acid) or fluorine NMR (in which case a suitable reference standard is trifiuoroacetic acid) may be employed. Because NMR is sensitive only to materials in the solution state or in micelles, only the drug that is not sequestered in nanopartides is measured by this method.
The solution was mixed, and an ^19F internal standard solution of trifluoroacetic acid (TFA) was added. […] This solution was vortexed 1 minute, and then carefully transferred to an 8 mm glass NMR tube.
Fluorine spectra of the sample was recorded at 282.327 MHz on a Varian Gemini 2000, 300 MHz NMR equipped with a Nalorac 8 mm indirect detection probe. […] Drug resonances were integrated relative to the internal standard peak and the drug concentration determined. […]

[2] = In vivo evaluation in dogs (Example 2, oral suspension, plasma LC/MS/MS); set-up: species or system male beagle dogs; settings: fasted dogs, oral gavage, approx. 50 mL of 1.2 mgA/mL suspension
Method: The nanoparticles of Example 2 were evaluated in vivo in dogs. Samples were dosed orally as a suspension to 6 male beagle dogs.
Animals were fasted overnight (at least 10 hours predose) through 8 hours postdose. Approximately 50 mL of suspension (1.2 mgA/mL) was administered to each dog via oral gavage, followed by approximately 5 mL water. Whole-blood samples (7-mL sodium heparin Vacutainer tubes) were taken from the jugular vein before dosing and at 0.5, 1, 2, 3, 4, 6, 8, 12, 24, and 28 hours after dosing. […] was harvested into tubes containing K2EDTA anticoagulant. Blood was maintained on wet ice prior to centrifugation to obtain plasma. Centrifugation began within 1 hour of collection, and samples were centrifuged at 2500 rpm for 15 minutes. Plasma was maintained on dry ice prior to storage at approximately −70° C. Plasma was analyzed using liquid chromatography with tandem mass spectrometry (LC/MS/MS). Crystalline Drug 1 was tested for comparison.

Log P of the drug = format: physicochemical; settings: octanol/water; method not stated
Description: By hydrophobic is meant that the Log P of the drug is at least 4. The LogP of the drug may be at least 5, at least 6, or even at least 7. Log P, defined as the base 10 logarithm of the ratio of (1) the drug concentration in an octanol phase to (2) the drug concentration (in its unionized form if the drug may be ionized) in a water phase when the two phases are in equilibrium with each other, is a widely accepted measure of hydrophobicity. Log P may be measured experimentally or calculated using methods known in the art. When using a calculated value for Log P, the highest value calculated using any generally accepted method for calculating Log P is used. […] Preferably the Log P value is calculated by using the average value estimated using Crippen's, Viswanadhan's, and Broto's fragmentation methods.

[3] = Solubility of crystalline drug in 2 wt % NaTC/POPC; format: physicochemical; settings: 2 wt % NaTC/POPC solution, fassgf or other biorelevant, thermodynamic from solid

Free Drug [1] [µg/mL] | AUC0-∞ [2] | Cmax [2] | Tmax [2] | logP (Log P of the drug) | solubility [3] [µg/mL] | SMILES
15 | <LOQ | <LOQ* | <LOQ | ~7.55 | – | CCOC(=O)N1c2ccc(C(F)(F)F)cc2[C@@H](N(Cc2cc(C(F)(F)F)cc(C(F)(F)F)c2)C(=O)OC)C[C@H]1CC [Drug 1, [2R,4S] 4-[(3,5-bis-trifluoromethyl-benzyl)-methoxycarbonyl-amino]-2-ethyl-6-trifluoromethyl-3,4-dihydro-2H-quinoline-1-carboxylic acid ethyl ester]
– | – | – | – | ~7.55 | ~8 (≈ 13.4 µM) | CC[C@@H]1C[C@H](N(Cc2cc(C(F)(F)F)cc(C(F)(F)F)c2)C(C)=O)c2cc(C(F)(F)F)ccc2N1C(=O)OC(C)C [Drug 2, [2R,4S] 4-[acetyl-(3,5-bis-trifluoromethyl-benzyl)-amino]-2-ethyl-6-trifluoromethyl-3,4-dihydro-2H-quinoline-1-carboxylic acid isopropyl ester]
